In ChEMBL document CHEMBL1201862, “PubChem BioAssay data set” (2004):
Values belong to the compound of their own block, whether it stands above or below them. Active and inactive are the calls of the source.

Columns and labels:
[1] = biological target: T1, Sentrin-specific protease 7 (Homo sapiens, UniProt Q9BQF6); assay: inhibition of human SENP7 cleavage activity – biochemical, luminescence, SAR follow-up (AID 504497); type: functional
T1 sequence (Q9BQF6 whole entry): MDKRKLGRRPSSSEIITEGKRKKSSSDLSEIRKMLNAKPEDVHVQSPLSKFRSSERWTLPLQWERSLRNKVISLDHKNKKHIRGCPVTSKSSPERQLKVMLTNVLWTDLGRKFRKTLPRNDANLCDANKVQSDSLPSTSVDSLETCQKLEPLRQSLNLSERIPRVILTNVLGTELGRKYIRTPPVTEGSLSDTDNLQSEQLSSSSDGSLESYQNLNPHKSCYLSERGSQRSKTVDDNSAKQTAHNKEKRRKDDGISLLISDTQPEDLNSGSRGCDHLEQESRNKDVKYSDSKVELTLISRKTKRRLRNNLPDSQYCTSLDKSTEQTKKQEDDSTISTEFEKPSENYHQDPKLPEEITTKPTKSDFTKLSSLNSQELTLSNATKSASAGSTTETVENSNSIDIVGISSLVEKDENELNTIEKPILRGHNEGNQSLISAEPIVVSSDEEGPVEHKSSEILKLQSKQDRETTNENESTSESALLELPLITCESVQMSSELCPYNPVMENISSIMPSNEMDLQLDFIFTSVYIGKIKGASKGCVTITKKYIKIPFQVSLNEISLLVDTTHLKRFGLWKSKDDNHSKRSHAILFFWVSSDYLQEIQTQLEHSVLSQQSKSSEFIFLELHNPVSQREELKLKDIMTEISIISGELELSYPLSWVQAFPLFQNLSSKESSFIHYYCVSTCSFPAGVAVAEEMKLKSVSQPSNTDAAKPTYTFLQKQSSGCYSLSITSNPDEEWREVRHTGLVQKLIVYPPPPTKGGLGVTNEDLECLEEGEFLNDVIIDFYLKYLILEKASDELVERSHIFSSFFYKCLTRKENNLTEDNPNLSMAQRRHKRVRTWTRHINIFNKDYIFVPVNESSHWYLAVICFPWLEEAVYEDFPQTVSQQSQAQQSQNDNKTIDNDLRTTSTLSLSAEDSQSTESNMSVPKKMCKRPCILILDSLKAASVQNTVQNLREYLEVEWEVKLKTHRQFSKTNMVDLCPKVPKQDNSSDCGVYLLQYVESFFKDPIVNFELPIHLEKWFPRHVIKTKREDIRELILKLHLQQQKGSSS

[2] = NIH-3T3 fibroblast cytotoxicity, dose response, cytotoxicity control, cell-based, fluorescence, Alamar Blue, secondary assay (AID 2327); type: functional;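 note: NIH-3T3 mouse fibroblasts cultured with fluconazole at 8 µg/mL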
[3] = DRD fibroblast viability loss – cell-based, non-viral oncogenic, luminescence, dose response (AID 1934); type: functional; settings: Homo sapiens
[4] = fluconazole-exposed Candida albicans growth modulators – fluorescence, retest, confirmation (AID 2467); type: functional, cell-based
[5] = biological target: Peroxisome proliferator-activated receptor gamma/Nuclear receptor coactivator 2 (Homo sapiens, UniProt P37231); type: functional;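 note: agonist potency for raising coactivator recruitment to the receptor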
[6] = Luminescence Cell-Based Dose Confirmation HTS to Identify Activators of 5'UTR Stem-Loop Driven Alpha-Synuclein mRNA Translation in H4 Neuroglioblastoma Cells. [Related pubchem assays: 1829 (Project Summary), 1814 (Primary HTS)]; type: functional
[7] = Luminescence Cell-Based Dose Response HTS to Identify Activators of Luciferase Translation or Activity in H4 […] Cells. [Related pubchem assays: 1829 (Project Summary), 1814 (Primary HTS)]; type: functional
[8] = biological target: Mitogen-activated protein kinase 12 (Homo sapiens, UniProt P53778); type: functional;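 note: measured as one member of a kinome-wide kinase profiling panel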
[9] = biological target: Tyrosine-protein kinase receptor UFO (Homo sapiens, UniProt P30530); type: functional
[10] = biological target: Serine/threonine-protein kinase PAK 1 (Homo sapiens, UniProt Q13153); type: functional
[11] = biological target: Macrophage colony-stimulating factor 1 receptor (Homo sapiens, UniProt P07333); type: functional;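 note: value comes from the Navigating the Kinome screening panel, CSF1R member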
[12] = biological target: Tyrosine-protein kinase receptor TYRO3 (Homo sapiens, UniProt Q06418); type: functional;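 note: TYRO3 value obtained as one member of a kinome-wide profiling panel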
[13] = biological target: Mitogen-activated protein kinase kinase kinase kinase 2 (Homo sapiens, UniProt Q12851); type: functional;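 note: measured as one member of a kinome-wide kinase panel, with MAP4K2 as the panel entry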
[14] = biological target: cGMP-dependent protein kinase 1 (Homo sapiens, UniProt Q13976); type: functional;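 note: value from a kinome panel screen with PRKG1 as the panel member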
Misshapen-like kinase 1 = Misshapen-like kinase 1 (Homo sapiens, UniProt Q8N4C8); type: functional;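 note: kinome panel screen with MINK as the panel member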
[15] = biological target: Interleukin-1 receptor-associated kinase 4 (Homo sapiens, UniProt Q9NWZ3); type: functional
[16] = biological target: Non-receptor tyrosine-protein kinase TYK2 (Homo sapiens, UniProt P29597); type: functional
[17] = biological target: Homeodomain-interacting protein kinase 4 (Homo sapiens, UniProt Q8NE63); type: functional
[18] = biological target: Tyrosine-protein kinase Lyn (Homo sapiens, UniProt P07948); type: functional;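 note: lyn as one member of a kinase panel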
[19] = biological target: 3-phosphoinositide-dependent protein kinase 1 (Homo sapiens, UniProt O15530); type: functional;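 note: value comes from the Navigating the Kinome panel, PDPK1 member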
Aurora kinase B = Aurora kinase B (Homo sapiens, UniProt Q96GD4); type: functional
[20] = biological target: cAMP-dependent protein kinase catalytic subunit PRKX (Homo sapiens, UniProt P51817); type: functional

Sequence of Non-receptor tyrosine-protein kinase TYK2 (P29597 whole entry): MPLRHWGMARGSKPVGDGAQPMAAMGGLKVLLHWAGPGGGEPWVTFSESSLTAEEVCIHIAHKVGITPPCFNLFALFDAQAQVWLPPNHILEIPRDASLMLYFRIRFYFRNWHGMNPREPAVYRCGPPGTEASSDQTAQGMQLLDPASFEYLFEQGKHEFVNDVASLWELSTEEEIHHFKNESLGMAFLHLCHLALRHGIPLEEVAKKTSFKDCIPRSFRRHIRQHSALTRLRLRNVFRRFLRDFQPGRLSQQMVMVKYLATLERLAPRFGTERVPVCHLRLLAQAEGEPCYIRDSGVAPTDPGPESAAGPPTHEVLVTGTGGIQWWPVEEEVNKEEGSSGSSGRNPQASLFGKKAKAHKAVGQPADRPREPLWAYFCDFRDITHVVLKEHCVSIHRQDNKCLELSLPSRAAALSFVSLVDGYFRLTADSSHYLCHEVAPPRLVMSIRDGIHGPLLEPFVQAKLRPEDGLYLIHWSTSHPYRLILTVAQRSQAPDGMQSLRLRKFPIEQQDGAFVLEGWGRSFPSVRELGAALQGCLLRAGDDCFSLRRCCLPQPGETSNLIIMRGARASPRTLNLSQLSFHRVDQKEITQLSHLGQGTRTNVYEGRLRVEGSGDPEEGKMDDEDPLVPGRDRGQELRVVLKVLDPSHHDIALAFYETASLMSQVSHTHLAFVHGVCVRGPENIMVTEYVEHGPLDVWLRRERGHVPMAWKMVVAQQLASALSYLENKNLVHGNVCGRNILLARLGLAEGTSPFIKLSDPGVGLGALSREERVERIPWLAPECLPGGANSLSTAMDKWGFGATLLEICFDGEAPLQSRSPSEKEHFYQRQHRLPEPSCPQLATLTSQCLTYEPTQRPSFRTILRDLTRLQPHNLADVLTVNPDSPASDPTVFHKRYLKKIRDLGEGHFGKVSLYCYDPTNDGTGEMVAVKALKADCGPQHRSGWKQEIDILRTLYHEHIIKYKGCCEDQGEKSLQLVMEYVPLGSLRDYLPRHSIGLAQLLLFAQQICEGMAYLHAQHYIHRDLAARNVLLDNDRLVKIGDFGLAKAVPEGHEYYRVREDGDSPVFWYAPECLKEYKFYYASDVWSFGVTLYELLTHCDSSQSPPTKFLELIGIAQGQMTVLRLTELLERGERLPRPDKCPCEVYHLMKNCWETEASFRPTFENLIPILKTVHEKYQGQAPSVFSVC
Sequence of Mitogen-activated protein kinase 12 (P53778 whole entry): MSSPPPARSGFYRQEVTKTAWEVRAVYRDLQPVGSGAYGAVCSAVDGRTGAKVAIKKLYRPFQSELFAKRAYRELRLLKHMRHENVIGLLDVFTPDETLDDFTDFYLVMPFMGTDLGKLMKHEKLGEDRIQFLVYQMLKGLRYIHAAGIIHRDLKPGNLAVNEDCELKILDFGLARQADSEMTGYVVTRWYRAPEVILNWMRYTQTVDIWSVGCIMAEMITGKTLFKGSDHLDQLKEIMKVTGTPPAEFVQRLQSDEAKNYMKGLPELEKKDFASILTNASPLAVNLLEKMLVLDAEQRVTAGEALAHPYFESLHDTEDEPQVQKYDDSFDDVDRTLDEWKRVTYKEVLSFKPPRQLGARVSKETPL
Sequence of Misshapen-like kinase 1 (Q8N4C8 whole entry): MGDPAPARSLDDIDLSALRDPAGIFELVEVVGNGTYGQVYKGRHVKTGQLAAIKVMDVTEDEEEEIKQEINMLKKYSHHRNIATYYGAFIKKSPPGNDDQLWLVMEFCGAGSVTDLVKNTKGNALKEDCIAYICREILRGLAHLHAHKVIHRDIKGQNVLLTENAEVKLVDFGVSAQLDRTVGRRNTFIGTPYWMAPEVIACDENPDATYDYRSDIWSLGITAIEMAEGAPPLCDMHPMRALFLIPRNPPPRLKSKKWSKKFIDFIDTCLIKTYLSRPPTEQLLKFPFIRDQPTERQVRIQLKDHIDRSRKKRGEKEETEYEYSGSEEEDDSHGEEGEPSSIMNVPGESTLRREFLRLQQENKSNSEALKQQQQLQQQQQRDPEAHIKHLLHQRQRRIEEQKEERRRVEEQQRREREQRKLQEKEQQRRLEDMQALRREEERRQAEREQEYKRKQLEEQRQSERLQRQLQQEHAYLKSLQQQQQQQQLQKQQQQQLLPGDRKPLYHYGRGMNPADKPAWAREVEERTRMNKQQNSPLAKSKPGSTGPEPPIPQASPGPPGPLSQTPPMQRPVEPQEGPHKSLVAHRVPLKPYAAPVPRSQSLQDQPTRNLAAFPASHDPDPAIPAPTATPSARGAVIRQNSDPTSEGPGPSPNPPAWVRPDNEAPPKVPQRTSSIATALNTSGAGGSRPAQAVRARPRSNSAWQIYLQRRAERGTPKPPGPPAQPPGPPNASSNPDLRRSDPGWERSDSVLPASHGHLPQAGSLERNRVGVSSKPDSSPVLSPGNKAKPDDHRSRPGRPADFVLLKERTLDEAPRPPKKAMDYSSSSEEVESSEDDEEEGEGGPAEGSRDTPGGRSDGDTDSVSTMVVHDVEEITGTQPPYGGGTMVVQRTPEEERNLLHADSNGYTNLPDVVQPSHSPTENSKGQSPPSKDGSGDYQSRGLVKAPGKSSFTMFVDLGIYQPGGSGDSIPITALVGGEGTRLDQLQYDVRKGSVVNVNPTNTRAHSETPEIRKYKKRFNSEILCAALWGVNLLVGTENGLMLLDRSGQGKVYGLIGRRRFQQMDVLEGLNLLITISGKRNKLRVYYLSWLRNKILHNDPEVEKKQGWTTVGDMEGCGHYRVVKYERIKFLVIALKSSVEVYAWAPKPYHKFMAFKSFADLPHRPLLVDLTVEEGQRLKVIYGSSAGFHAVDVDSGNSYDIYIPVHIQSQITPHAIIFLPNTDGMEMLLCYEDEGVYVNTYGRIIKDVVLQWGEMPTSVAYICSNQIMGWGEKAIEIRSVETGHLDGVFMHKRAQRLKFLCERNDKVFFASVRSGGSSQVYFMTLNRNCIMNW
Sequence of Tyrosine-protein kinase receptor TYRO3 (Q06418 whole entry): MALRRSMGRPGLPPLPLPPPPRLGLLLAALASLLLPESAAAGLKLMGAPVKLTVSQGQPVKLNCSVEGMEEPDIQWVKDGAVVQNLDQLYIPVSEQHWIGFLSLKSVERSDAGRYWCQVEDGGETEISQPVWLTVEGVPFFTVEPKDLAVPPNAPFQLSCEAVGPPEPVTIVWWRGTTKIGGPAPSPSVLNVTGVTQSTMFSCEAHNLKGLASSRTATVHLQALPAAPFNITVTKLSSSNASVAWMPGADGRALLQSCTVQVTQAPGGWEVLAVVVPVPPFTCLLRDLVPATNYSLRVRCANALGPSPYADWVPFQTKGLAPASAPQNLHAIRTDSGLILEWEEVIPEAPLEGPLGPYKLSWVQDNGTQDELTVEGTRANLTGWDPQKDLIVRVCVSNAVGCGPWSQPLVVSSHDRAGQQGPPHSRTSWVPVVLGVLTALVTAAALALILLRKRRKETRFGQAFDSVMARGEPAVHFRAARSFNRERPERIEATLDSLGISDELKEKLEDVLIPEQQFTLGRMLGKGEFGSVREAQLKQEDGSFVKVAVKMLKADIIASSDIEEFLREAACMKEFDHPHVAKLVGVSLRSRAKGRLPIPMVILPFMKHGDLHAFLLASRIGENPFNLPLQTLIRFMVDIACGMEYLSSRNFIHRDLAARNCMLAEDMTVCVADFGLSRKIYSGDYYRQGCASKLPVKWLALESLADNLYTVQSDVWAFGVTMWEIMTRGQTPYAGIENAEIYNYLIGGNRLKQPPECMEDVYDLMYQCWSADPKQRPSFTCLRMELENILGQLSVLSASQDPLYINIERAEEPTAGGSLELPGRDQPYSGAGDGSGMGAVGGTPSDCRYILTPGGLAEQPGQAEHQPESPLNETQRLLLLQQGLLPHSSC
Sequence of 3-phosphoinositide-dependent protein kinase 1 (O15530 whole entry): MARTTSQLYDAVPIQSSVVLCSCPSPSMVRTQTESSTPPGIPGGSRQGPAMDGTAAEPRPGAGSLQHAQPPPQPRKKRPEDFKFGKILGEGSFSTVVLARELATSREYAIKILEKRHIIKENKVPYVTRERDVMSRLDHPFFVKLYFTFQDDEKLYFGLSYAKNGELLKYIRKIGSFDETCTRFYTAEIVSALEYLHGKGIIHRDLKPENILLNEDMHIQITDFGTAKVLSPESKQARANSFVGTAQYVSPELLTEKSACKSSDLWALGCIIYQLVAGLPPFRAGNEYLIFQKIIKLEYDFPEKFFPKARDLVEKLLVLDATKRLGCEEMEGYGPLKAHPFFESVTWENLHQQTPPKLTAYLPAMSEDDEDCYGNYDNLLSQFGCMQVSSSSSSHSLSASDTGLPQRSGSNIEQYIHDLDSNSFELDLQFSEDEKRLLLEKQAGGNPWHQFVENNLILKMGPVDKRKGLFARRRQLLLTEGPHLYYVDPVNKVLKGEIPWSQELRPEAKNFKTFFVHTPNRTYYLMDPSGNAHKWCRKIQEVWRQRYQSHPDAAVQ
Sequence of Interleukin-1 receptor-associated kinase 4 (Q9NWZ3 whole entry): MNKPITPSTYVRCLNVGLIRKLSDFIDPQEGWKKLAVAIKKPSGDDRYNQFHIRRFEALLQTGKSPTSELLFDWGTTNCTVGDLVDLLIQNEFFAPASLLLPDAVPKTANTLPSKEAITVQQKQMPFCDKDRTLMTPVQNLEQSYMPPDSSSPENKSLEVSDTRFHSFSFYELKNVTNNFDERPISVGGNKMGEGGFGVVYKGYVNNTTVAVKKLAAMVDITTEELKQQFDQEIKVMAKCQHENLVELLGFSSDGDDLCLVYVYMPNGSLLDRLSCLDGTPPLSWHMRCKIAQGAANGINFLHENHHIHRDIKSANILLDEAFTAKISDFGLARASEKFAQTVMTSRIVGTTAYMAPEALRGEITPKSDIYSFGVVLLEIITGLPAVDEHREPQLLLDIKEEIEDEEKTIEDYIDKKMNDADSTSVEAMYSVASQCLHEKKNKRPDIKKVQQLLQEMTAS

SMILES: Cc1cnc(NC(=O)c2sc3ccccc3c2Cl)s1
IC50 [1]: 1770 nM (active)

SMILES: Cc1ccc(Nc2cc(C)nn2-c2nc(C)cc(O)n2)cc1
EC50 [2]: 1760 nM (inconclusive)
EC50 [3]: 22400 nM (active)
EC50 [4]: < 30 nM (active)

SMILES: CN(C)c1ncc(C2=C(Cl)C(=O)C(N3CCCC3)=C(Cl)C2=O)s1
EC50 [5]: > 79400 nM (not active)
EC50 [6]: > 120000 nM (not active)
EC50 [7]: 13700 nM (active)

Ki [8]: > 6310 nM (inactive)
Ki [9]: > 2000 nM (inactive)
Ki [10]: > 10000 nM (inactive)
Ki [11]: > 2510 nM (inactive)
Ki [12]: > 2000 nM (inactive)
Ki [13]: > 6310 nM (inactive)
Ki [14]: > 2000 nM (inactive)
Ki (Misshapen-like kinase 1): > 7940 nM (inactive)
Ki [15]: 7940 nM (active)
Ki [16]: > 2000 nM (inactive)
Ki [17]: 631 nM (active)
Ki [18]: > 1580 nM (inactive)
Ki [19]: > 3980 nM (inactive)
Ki (Aurora kinase B): 2510 nM (active)
Ki [20]: > 1580 nM (inactive)
SMILES: O=C1NC(=S)SC1=C1C(=O)Nc2ccc(Br)cc21
